Measured values published in patent US20250197842A1, “IMPROVING ENZYMATIC CHANNELING EFFICIENCY VIA MIXED NANOPARTICLE SCAFFOLDS WITHIN SELF-ASSEMBLED NANOPARTICLE ENZYME CLUSTERS” (The Government of the United States of America, as …, priority 2023, published 2025).
Values belong to the molecule of their own block, whether it stands above or below them.

Assays:
[1] = biological target: E. coli BL21(DE3) pyruvate kinase PykA (EC 2.7.1.40), N-terminal (His)6, SEQ ID NO 1, on mixed 525 QD/NPL (Escherichia coli, UniProt P21599); details: ratio 2 enzyme per NP
E. coli BL21(DE3) pyruvate kinase PykA (EC 2.7.1.40), N-terminal (His)6, SEQ ID NO 1, on mixed 525 QD/NPL, sequence (P21599 whole entry, added parts left off): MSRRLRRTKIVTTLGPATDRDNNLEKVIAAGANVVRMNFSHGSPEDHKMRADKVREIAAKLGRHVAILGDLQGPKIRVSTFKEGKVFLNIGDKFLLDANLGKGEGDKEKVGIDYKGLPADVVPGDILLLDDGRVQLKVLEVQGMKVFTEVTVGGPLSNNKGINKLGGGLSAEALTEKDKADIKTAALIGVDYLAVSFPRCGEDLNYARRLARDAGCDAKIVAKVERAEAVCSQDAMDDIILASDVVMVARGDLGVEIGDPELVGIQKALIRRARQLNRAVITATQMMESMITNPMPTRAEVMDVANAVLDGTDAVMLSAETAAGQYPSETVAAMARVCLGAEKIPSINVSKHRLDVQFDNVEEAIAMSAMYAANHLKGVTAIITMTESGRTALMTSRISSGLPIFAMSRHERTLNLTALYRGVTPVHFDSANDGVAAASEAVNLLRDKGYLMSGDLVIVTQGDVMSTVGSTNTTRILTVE
Description: To examine the display of enzymes on mixed NP scaffolds, next examined was the individual activity of Pyka and LDH at a ratio of 2 enzyme per NP in representative samples comprising of three different ratios of 525 QD to NPL, see Table 3.

[2] = biological target: E. coli BL21(DE3) pyruvate kinase PykA (EC 2.7.1.40), N-terminal (His)6, SEQ ID NO 1, free in solution (Escherichia coli, UniProt P21599); details: free enzyme (ratio 0), apparent
E. coli BL21(DE3) pyruvate kinase PykA (EC 2.7.1.40), N-terminal (His)6, SEQ ID NO 1, free in solution, sequence (P21599 whole entry, added parts left off): as above

[3] = biological target: T1, E. coli BL21(DE3) lactate dehydrogenase LDH (EC 1.1.1.28), N-terminal (His)6, SEQ ID NO 2, assembled on NPLs (Escherichia coli, UniProt P52643); assay: Michaelis Menten kinetics of LDH assembled on NPLs; assay type: biochemical, E. coli strain BL21(DE3); details: ratio 1 LDH per NPL, apparent
T1 sequence (P52643 with tags, fused parts or gaps): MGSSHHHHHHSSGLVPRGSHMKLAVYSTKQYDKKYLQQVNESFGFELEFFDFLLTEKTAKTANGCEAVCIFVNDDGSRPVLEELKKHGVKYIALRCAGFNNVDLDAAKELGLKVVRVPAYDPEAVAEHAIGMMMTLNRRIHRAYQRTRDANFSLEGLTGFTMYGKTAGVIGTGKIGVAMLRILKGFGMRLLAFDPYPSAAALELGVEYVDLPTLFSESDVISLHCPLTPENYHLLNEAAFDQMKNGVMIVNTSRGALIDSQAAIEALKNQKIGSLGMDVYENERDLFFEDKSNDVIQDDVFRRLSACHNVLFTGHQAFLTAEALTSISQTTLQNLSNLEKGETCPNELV
Description: (§1) The latter are a quasi-two-dimensional QD-like material. As noted above in the Definitions section, NP or nanomaterial is used interchangeable to refer generically to these materials while QDs and NPLs are used to specify a given type. The NP materials were surface functionalized with the zwitterionic dihydrolipoic acid derivative compact ligand 4 (CL4, see U.S. Pat. No. 8,859,284), which replace the hydrophobic ligands utilized during nanomaterial crystal growth for colloidal stability in aqueous buffers. For enzyme attachment or bioconjugation to the NPs, self-assembly was driven by metal affinity coordination of the enzyme's pendant (His)6-motifs to the QD's ZnS shell.

[4] = biological target: T2, E. coli BL21(DE3) lactate dehydrogenase LDH (EC 1.1.1.28), N-terminal (His)6, SEQ ID NO 2, assembled on 641 QDs (Escherichia coli, UniProt P52643); assay: Michaelis Menten kinetics of LDH assembled on 641 QDs; assay type: biochemical, E. coli strain BL21(DE3); details: apparent
T2 sequence (P52643 with tags, fused parts or gaps): T1 sequence (P52643 with tags, fused parts or gaps)
Description: as §1

[5] = biological target: T3, E. coli BL21(DE3) lactate dehydrogenase LDH (EC 1.1.1.28), N-terminal (His)6, SEQ ID NO 2, assembled on 525 QDs (Escherichia coli, UniProt P52643); assay: Michaelis Menten kinetics of LDH assembled on 525 QDs; assay type: biochemical, E. coli strain BL21(DE3); details: apparent
T3 sequence (P52643 with tags, fused parts or gaps): T1 sequence (P52643 with tags, fused parts or gaps)
Description: as §1

[6] = biological target: T4, E. coli BL21(DE3) lactate dehydrogenase LDH (EC 1.1.1.28), N-terminal (His)6, SEQ ID NO 2, on mixed 525 QD/NPL (Escherichia coli, UniProt P52643); assay type: biochemical, E. coli strain BL21(DE3); details: 0.75 nM 525 QD/0.5 nM NPL, ratio 2 per NP, apparent
T4 sequence (P52643 with tags, fused parts or gaps): T1 sequence (P52643 with tags, fused parts or gaps)
Description: as §1

[7] = biological target: T5, E. coli BL21(DE3) lactate dehydrogenase LDH (EC 1.1.1.28), N-terminal (His)6, SEQ ID NO 2, assembled on 625 QDs (Escherichia coli, UniProt P52643); assay: Michaelis Menten kinetics of LDH assembled on 625 QDs; assay type: biochemical, E. coli strain BL21(DE3); details: apparent
T5 sequence (P52643 with tags, fused parts or gaps): T1 sequence (P52643 with tags, fused parts or gaps)
Description: as §1

[8] = biological target: T6, E. coli BL21(DE3) lactate dehydrogenase LDH (EC 1.1.1.28), N-terminal (His)6, SEQ ID NO 2, free in solution (Escherichia coli, UniProt P52643); assay: Michaelis Menten kinetics of LDH free in solution; assay type: biochemical, E. coli strain BL21(DE3); details: free enzyme (ratio 0), apparent
T6 sequence (P52643 with tags, fused parts or gaps): T1 sequence (P52643 with tags, fused parts or gaps)

[9] = substrate: CC(=O)C(=O)O; assay: Michaelis Menten kinetics of LDH free in solution; assay type: biochemical, E. coli strain BL21(DE3); details: other: free enzyme (ratio 0), apparent, pH 8.0

kcat [1]: 13.3 s⁻¹
kcat [2]: 25 s⁻¹
Molecule: C=C(OP(=O)(O)O)C(=O)O [PEP, phosphoenolpyruvic acid]

Molecule: CC(=O)C(=O)O [pyruvic acid]
kcat [3]: 32.3 s⁻¹
VMax ([4]; ratio 1 LDH per QD): 8.3 ± 0.1 nM/s
kcat ([4]; ratio 1 LDH per QD): 3.32 ± 0.1 s⁻¹
kcat/KM ([4]; ratio 1 LDH per QD): 0.006 ± 0.002 M⁻¹ s⁻¹
VMax ([4]; ratio 2 LDH per QD): 7.7 ± 0.3 nM/s
kcat/KM ([4]; ratio 2 LDH per QD): 0.0038 ± 0.0007 M⁻¹ s⁻¹
VMax ([4]; ratio 4 LDH per QD): 3.6 ± 0.5 nM/s
kcat ([4]; ratio 4 LDH per QD): 1.45 ± 0.1 s⁻¹
kcat/KM ([4]; ratio 4 LDH per QD): 0.0021 ± 0.001 M⁻¹ s⁻¹
VMax ([4]; ratio 8 LDH per QD): 2.6 ± 0.3 nM/s
kcat ([4]; ratio 8 LDH per QD): 1.04 ± 0.1 s⁻¹
kcat/KM ([4]; ratio 8 LDH per QD): 0.0013 ± 0.0003 M⁻¹ s⁻¹
VMax ([5]; ratio 1 LDH per QD): 40.0 ± 6 nM/s
kcat ([5]; ratio 1 LDH per QD): 15.9 ± 0.4 s⁻¹
kcat/KM ([5]; ratio 1 LDH per QD): 0.015 ± 0.0005 M⁻¹ s⁻¹
VMax ([5]; ratio 2 LDH per QD): 45.0 ± 1 nM/s
kcat/KM ([5]; ratio 2 LDH per QD): 0.02 ± 0.007 M⁻¹ s⁻¹
VMax ([5]; ratio 4 LDH per QD): 40.0 ± 1 nM/s
kcat ([5]; ratio 4 LDH per QD): 15.5 ± 0.1 s⁻¹
kcat/KM ([5]; ratio 4 LDH per QD): 0.014 ± 0.004 M⁻¹ s⁻¹
VMax ([5]; ratio 8 LDH per QD): 57.0 ± 1 nM/s
kcat/KM ([5]; ratio 8 LDH per QD): 0.015 ± 0.003 M⁻¹ s⁻¹
VMax [6]: 53.0 ± 1 nM/s
kcat/KM [6]: 0.019 ± 0.002 M⁻¹ s⁻¹
VMax ([7]; ratio 1 LDH per QD): 69.0 ± 1 nM/s
kcat/KM ([7]; ratio 1 LDH per QD): 0.021 ± 0.005 M⁻¹ s⁻¹
VMax ([7]; ratio 2 LDH per QD): 58.0 ± 3 nM/s
kcat/KM ([7]; ratio 2 LDH per QD): 0.023 ± 0.004 M⁻¹ s⁻¹
VMax ([7]; ratio 4 LDH per QD): 49.0 ± 1 nM/s
kcat ([7]; ratio 4 LDH per QD): 19.5 ± 0.1 s⁻¹
kcat/KM ([7]; ratio 4 LDH per QD): 0.018 ± 0.005 M⁻¹ s⁻¹
VMax ([7]; ratio 8 LDH per QD): 52.0 ± 1 nM/s
kcat ([7]; ratio 8 LDH per QD): 20.7 ± 0.1 s⁻¹
kcat/KM ([7]; ratio 8 LDH per QD): 0.017 ± 0.005 M⁻¹ s⁻¹
kcat [8]: 13.3 s⁻¹
kcat/KM [8]: 0.015 ± 0.007 M⁻¹ s⁻¹

B1: E. coli BL21(DE3) lactate dehydrogenase LDH (EC 1.1.1.28), N-terminal (His)6, SEQ ID NO 2, free in solution (Escherichia coli K-12) (protein)
chain: T1 sequence (P52643 with tags, fused parts or gaps)
Km [9]: 900 ± 400 µM
Vmax [9]: 1.98 µM/min
